Laboratory results taken from patent US7238693B2, “Aryl carbamate derivatives, preparation and use thereof” (Cerep, priority 2001, dated 2007).
Where two headings read alike, the source gives them in different places.

Key:
Type in all cases: binding
human isoform h5-HT4e = biological target: T1, human isoform h5-HT4e (Homo sapiens, UniProt Q13639); test: displacement of radioligand [3H]-GR113808 in rat glial cells expressing h5-HT4e
T1 construct: expressed in transfected cells; membrane preparation
Procedure: The compounds of the invention were evaluated by measuring their affinity constant Ki determined by displacing a radioligand [^3H]-GR113808 in rat glial cells stably expressing the human isoform h5-HT4e.
Confluent glial cells were washed twice in PBS and centrifuged at 300 g for 5 min. The pellet was used immediately and the cells were suspended in 10 volumes of HEPES (50 mM, pH 7.4, 4° C.) then homogenized with a teflon homogenizer and centrifuged at 40,000 g for 20 min. The pellet was resuspended in 15 volumes of HEPES. Displacement experiments were carried out in 500 μl of buffer (50 mM HEPES) containing 20 μl of radioligand [^3H]-GR113808 at a concentration of 0.2 nM for isoform h5-HT4e or at a concentration equal to half of the Kd of the radioligand for the other isoforms expressed in COS cells, 20 μl of competitor ligand at seven different concentrations and 50 μl of membrane preparation (100–200 μg of protein determined by the Bradford method). Binding was carried out at 25° C. for 30 min and the reaction was stopped by rapid vacuum filtration (Brandel Harvester) on Whatman GF/B filters preincubated in 0.1% PEI solution to minimize nonspecific binding.
Membrane-bound radioactivity is retained on the filter, which was cut and washed with cold buffer (50 mM Tris-HCl, pH 7.4) and incubated overnight in 4 ml of scintillation liquid. Radioactivity was measured in a liquid scintillation counter (Beckman LS 6500C). Binding data were obtained by computer assisted linear regression (Graph Prism Program, Graph Pad Software. Inc., San Diego, Calif.)

5-HT2C receptor = biological target: T2, 5-HT2C receptor (Homo sapiens, UniProt P28335); test: selectivity, 5-HT2C receptor; settings: up to a concentration of 1 μM
T2 sequence (P28335 33-458): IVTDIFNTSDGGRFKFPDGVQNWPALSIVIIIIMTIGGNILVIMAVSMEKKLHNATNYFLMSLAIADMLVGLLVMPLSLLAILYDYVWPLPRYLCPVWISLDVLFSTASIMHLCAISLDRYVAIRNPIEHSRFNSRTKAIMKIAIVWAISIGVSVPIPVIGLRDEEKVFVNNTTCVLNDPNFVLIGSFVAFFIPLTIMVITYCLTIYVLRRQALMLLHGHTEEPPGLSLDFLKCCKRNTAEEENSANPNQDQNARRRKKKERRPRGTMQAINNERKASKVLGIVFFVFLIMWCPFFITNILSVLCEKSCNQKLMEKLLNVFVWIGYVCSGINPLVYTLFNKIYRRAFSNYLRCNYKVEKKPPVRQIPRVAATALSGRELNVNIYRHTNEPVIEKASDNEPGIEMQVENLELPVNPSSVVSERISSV

5-HT2A receptor = 5-HT2A receptor (Homo sapiens, UniProt P28223); test: selectivity, 5-HT2A receptor; settings: up to a concentration of 1 μM
5-HT5A receptor = 5-HT5A receptor (Homo sapiens, UniProt P47898); test: selectivity, 5-HT5A receptor; settings: up to a concentration of 1 μM
5-HT6 receptor = 5-HT6 receptor (Homo sapiens, UniProt P50406); test: selectivity, 5-HT6 receptor; settings: up to a concentration of 1 μM
5-HT3 receptor = biological target: T3, 5-HT3 receptor (Homo sapiens, UniProt P46098); test: selectivity, 5-HT3 receptor; settings: up to a concentration of 1 μM
T3 sequence (P46098 24-478): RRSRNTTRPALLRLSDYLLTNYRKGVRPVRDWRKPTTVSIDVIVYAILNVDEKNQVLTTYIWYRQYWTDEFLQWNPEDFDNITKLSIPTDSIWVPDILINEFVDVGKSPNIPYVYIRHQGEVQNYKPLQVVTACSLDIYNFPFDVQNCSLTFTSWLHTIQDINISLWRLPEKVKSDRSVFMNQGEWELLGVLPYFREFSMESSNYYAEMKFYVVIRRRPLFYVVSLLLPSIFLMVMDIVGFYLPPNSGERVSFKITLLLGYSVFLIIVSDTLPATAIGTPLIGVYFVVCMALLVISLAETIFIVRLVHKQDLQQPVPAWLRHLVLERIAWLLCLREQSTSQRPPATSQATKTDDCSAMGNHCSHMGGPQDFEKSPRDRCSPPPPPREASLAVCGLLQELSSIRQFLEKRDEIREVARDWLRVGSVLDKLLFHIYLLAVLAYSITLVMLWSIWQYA

5-HT1A receptor = biological target: T4, 5-HT1A receptor (Homo sapiens, UniProt P08908); test: selectivity, 5-HT1A receptor; settings: up to a concentration of 1 μM
T4 sequence (P08908 1-422): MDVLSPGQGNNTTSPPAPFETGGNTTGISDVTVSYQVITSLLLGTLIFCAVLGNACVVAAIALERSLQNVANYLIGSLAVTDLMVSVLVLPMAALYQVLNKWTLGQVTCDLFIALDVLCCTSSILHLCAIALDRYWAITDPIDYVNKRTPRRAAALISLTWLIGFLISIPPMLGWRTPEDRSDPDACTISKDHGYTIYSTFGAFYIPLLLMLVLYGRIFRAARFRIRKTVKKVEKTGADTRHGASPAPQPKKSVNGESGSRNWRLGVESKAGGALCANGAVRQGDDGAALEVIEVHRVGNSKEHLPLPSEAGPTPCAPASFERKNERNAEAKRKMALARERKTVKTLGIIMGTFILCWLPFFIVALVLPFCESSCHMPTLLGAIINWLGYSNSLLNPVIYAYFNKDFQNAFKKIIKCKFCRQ

5-HT7 receptor = 5-HT7 receptor (Homo sapiens, UniProt P34969); test: selectivity, 5-HT7 receptor; settings: up to a concentration of 1 μM
5-HT1B receptor = 5-HT1B receptor (Homo sapiens, UniProt P28222); test: selectivity, 5-HT1B receptor; settings: up to a concentration of 1 μM
[1] = [3H]-GR113808 0.2 nM, membranes of rat glial cells expressing h5-HT4e, 25° C., 30 min, read-out: Ki

T1 sequence (Q13639 1-378 isoform Q13639-5): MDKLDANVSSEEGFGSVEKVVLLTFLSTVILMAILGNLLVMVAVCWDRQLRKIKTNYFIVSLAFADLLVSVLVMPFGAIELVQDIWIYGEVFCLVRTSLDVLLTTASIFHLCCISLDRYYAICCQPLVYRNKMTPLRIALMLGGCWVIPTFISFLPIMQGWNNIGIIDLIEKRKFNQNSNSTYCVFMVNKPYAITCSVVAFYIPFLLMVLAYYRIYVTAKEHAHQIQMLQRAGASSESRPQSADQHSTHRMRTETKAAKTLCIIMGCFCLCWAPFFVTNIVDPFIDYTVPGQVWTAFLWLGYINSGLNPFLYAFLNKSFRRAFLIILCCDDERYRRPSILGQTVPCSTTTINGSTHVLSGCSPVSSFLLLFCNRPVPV
Chain of 5-HT2A receptor (P28223 whole entry): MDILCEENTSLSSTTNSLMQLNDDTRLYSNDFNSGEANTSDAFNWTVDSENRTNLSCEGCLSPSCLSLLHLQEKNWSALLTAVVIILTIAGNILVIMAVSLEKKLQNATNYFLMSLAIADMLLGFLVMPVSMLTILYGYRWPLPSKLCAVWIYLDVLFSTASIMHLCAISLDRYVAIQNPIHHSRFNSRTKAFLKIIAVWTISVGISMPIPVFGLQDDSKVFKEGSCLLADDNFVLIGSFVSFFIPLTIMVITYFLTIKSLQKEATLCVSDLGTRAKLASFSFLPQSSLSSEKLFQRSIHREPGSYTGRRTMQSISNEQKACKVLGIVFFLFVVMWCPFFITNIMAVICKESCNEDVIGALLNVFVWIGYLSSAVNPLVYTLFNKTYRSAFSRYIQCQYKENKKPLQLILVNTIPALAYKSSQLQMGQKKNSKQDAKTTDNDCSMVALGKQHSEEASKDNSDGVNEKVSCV
Chain of 5-HT7 receptor (P34969 whole entry): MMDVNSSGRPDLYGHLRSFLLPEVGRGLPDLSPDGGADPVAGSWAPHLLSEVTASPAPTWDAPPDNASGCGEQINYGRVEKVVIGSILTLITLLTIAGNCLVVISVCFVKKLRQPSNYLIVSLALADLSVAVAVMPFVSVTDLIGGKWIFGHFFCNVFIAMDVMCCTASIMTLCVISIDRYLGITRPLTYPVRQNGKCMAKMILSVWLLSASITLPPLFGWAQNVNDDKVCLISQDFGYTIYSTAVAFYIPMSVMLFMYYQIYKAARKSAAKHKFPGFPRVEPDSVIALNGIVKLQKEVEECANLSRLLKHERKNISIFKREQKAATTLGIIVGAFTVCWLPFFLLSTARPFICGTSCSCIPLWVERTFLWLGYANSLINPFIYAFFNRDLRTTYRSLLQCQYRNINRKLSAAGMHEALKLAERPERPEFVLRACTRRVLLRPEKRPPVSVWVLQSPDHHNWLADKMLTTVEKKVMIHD
Chain of 5-HT1B receptor (P28222 whole entry): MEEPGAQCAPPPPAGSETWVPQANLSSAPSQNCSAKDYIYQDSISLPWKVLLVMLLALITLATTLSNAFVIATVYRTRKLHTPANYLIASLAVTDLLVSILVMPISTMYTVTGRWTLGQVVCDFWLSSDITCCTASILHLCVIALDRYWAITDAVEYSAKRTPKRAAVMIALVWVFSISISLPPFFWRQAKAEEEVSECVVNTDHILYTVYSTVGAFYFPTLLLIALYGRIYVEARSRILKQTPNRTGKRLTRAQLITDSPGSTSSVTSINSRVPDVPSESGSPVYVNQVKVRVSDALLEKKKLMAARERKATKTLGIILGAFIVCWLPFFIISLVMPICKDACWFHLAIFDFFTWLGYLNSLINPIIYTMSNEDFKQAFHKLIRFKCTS
Chain of 5-HT5A receptor (P47898 whole entry): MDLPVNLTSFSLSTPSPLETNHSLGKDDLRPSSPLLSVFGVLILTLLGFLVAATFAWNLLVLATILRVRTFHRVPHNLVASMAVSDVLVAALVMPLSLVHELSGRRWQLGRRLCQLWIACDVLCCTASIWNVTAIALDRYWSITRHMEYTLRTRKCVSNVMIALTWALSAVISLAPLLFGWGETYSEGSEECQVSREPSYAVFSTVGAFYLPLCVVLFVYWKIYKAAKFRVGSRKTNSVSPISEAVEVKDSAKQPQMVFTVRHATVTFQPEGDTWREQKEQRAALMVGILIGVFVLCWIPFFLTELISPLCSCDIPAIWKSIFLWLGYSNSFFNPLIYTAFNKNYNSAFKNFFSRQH
Chain of 5-HT6 receptor (P50406 whole entry): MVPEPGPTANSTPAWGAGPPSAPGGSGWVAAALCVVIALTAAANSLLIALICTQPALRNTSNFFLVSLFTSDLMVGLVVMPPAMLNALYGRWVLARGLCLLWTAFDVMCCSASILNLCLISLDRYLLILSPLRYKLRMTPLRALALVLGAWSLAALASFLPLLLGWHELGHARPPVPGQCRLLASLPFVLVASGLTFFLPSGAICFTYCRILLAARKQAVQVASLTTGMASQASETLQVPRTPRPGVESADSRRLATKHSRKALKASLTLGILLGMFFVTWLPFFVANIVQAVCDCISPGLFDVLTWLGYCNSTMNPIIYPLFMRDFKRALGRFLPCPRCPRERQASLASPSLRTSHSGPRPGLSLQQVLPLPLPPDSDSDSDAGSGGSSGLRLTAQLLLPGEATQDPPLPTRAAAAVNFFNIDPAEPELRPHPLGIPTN

Ki (human isoform h5-HT4e; [1]) [nM] | Compound | also measured
4.5 | CCOc1ccccc1NC(=O)OCCN1CCN(c2ccccn2)CC1 [Compound 24, 2-[4-(2-pyridinyl)piperazino]ethyl-N-(2-ethoxyphenyl)carbamate] | –
9.3 | COc1ccccc1NC(=O)OCCN1CCN(c2ccccn2)CC1 [Compound 62, 2-[4-(2-pyridinyl)piperazino]ethyl-N-(2-methoxyphenyl)carbamate] | –
20.2 | CCOc1ccccc1NC(=O)OCCN1CCN(c2cccc(C)c2)CC1 [Compound 21, 2-[4-(3-methylphenyl)piperazino]ethyl-N-(2-ethoxyphenyl)carbamate] | –
3.6 | CCOc1ccccc1NC(=O)OCCCN1CCN(c2cccnn2)CC1 [Compound 42, 3-[4-(3-pyridazinyl)piperazino]propyl-N-(2-ethoxyphenyl)carbamate] | –
3.9 | CCOc1ccccc1NC(=O)OCCCN1CCN(c2ccc(C)nn2)CC1 [Compound 48, 3-[4-(6-methyl-3-pyridazinyl)piperazino]propyl-N-(2-ethoxyphenyl)carbamate] | –
10.4 | CCOc1ccccc1NC(=O)OCCCN1CCN(c2ccncn2)CC1 [Compound 43, 3-[4-(4-pyrimidinyl)piperazino]propyl-N-(2-ethoxyphenyl)carbamate] | –
9.9 | CCOc1ccccc1NC(=O)OCCCN1CCN(c2ccccn2)CC1 [Compound 40, 3-[4-(2-pyridinyl)piperazino]propyl-N-(2-ethoxyphenyl)carbamate] | –
12.7 | COc1cccc(N2CCN(CCOC(=O)Nc3ccccc3OC)CC2)c1 [Compound 51, 2-[4-(3-methoxyphenyl)piperazino]ethyl-N-(2-methoxyphenyl)carbamate] | –
10.4 | COc1ccccc1NC(=O)OCCN1CCN(c2ncccn2)CC1 [Compound 65, 2-[4-(2-pyrimidinyl)piperazino]ethyl-N-(2-methoxyphenyl)carbamate] | –
10.6 | COc1ccccc1NC(=O)OCCN1CCN(c2cccnn2)CC1 [Compound 64, 2-[4-(3-pyridazinyl)piperazino]ethyl-N-(2-methoxyphenyl)carbamate] | –
11.8 | CCOc1ccccc1NC(=O)OCCCN1CCN(c2ncccn2)CC1 [Compound 44, 3-[4-(2-pyrimidinyl)piperazino]propyl-N-(2-ethoxyphenyl)carbamate] | –
10 | COc1ccccc1NC(=O)OCCCN1CCN(c2ccncc2)CC1 [Compound 83, 3-[4-(4-pyridinyl)piperazino]propyl-N-(2-methoxyphenyl)carbamate] | –
– | COc1ccccc1NC(=O)OCCN1CCN(c2ccncc2)CC1 [Compound 63, 2-[4-(4-pyridinyl)piperazino]ethyl-N-(2-methoxyphenyl)carbamate] | activity for the 5-HT2C receptor (5-HT2C receptor): no activity; activity for the 5-HT2A receptor (5-HT2A receptor): no activity; activity for the 5-HT5A receptor (5-HT5A receptor): no activity; activity for the 5-HT6 receptor (5-HT6 receptor): no activity; activity for the 5-HT3 receptor (5-HT3 receptor): no activity; activity for the 5-HT1A receptor (5-HT1A receptor): no activity; activity for the 5-HT7 receptor (5-HT7 receptor): no activity; activity for the 5-HT1B receptor (5-HT1B receptor): no activity; Ki (human isoform h5-HT4e; as stated in the description, read-out: Ki for the 5-HT4 receptor): 5 nM
